Our source for the GI50 and TGI values is PubChem BioAssay (NCI).

Test systems include U251 CNS; A549 NSCLC; 786-0 renal; HOP-62 NSCLC; NCI-H226 lung; SF-539 CNS; OVCAR-4 ovarian; HOP-92 NSCLC; MDA-MB-435; SF-268 CNS.
Experiment in all cases: growth of human tumour cells (NCI), 48 h

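Grown in 96-well plates, cells were treated for 48 hours with each compound at five concentrations. Insufficient inhibition: endpoint recorded as highest concentration tested. The concentration for 50% growth inhibition is given as GI50. TGI marks complete inhibition of growth.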

Consider `COc1ccc2c(c1)=C(C=C1C=CN(O)C=C1)C(=O)N=2`, for which the GI50 is 27.3 µM with U251 CNS; 29.8 µM in the experiment on A549 NSCLC; 31 µM in the experiment with 786-0 renal; 40.2 µM with HOP-62 NSCLC; 25.7 µM with NCI-H226 lung; 28.8 µM with SF-539 CNS. The GI50 in the experiment with OVCAR-4 ovarian is 9.96 µM; in the experiment with HOP-92 NSCLC, 25.9 µM; in the experiment on MDA-MB-435, 35 µM; with SF-268 CNS, 28.1 µM. Besides, the TGI in the experiment on U251 CNS is greater than 100 µM; with A549 NSCLC, greater than 100 µM; in the experiment on 786-0 renal, greater than 92.3 µM; in the experiment on HOP-62 NSCLC it was greater than 100 µM; in the experiment on NCI-H226 lung, 97.5 µM; in the experiment on SF-539 CNS, greater than 65.8 µM. Moreover, the TGI was greater than 100 µM with OVCAR-4 ovarian, greater than 100 µM with HOP-92 NSCLC, greater than 89.6 µM in the experiment with MDA-MB-435 and 93.2 µM in the experiment on SF-268 CNS.
`Oc1ccc(CN2CCC(N3CCOCC3)CC2)c2cccnc12`: the GI50 was 24.4 µM in the experiment on U251 CNS; greater than 100 µM with A549 NSCLC; 42.2 µM in the experiment on 786-0 renal; 42.7 µM with HOP-62 NSCLC; 41.4 µM in the experiment on NCI-H226 lung; 24.2 µM with SF-539 CNS. Further, the GI50 in the experiment with OVCAR-4 ovarian was 22.9 µM; in the experiment with HOP-92 NSCLC it was 65.9 µM; with MDA-MB-435, 36.2 µM; in the experiment on SF-268 CNS, 16.3 µM. Moreover, the TGI with U251 CNS, in the experiment with A549 NSCLC, with 786-0 renal, in the experiment with HOP-62 NSCLC, with NCI-H226 lung and with SF-539 CNS was greater than 100 µM each time. The TGI with OVCAR-4 ovarian, with HOP-92 NSCLC, with MDA-MB-435 and in the experiment with SF-268 CNS was greater than 100 µM each time.
Regarding `O=c1cc(-c2ccccc2)oc2cc(O)c(O)c(O)c12`, the GI50 in the experiment with U251 CNS was 11.1 µM; with A549 NSCLC it was 36.2 µM; in the experiment on 786-0 renal, 9.87 µM; with HOP-62 NSCLC, 9.49 µM; with NCI-H226 lung it was 19.3 µM; in the experiment with SF-539 CNS, 8.4 µM. In addition, the GI50 with OVCAR-4 ovarian is 47.1 µM; in the experiment on HOP-92 NSCLC, 3.58 µM; in the experiment on MDA-MB-435 it was 10.2 µM; in the experiment on SF-268 CNS, 4.55 µM. For the same compound, the TGI was greater than 100 µM in the experiment with U251 CNS; greater than 100 µM in the experiment with A549 NSCLC; 27.3 µM with 786-0 renal; 31.2 µM with HOP-62 NSCLC; 58 µM in the experiment on NCI-H226 lung; 36.8 µM in the experiment with SF-539 CNS. In addition, the TGI in the experiment with OVCAR-4 ovarian is greater than 100 µM; with HOP-92 NSCLC, 48.7 µM; with MDA-MB-435, 39.8 µM; in the experiment on SF-268 CNS it was 29.6 µM.
Turning to `Nc1ncnc2c1ncn2Cc1ccc(C23CC4CC(CC(C4)C2)C3)c(OCc2cc(F)c(F)cc2F)c1`, the GI50 was 5.59 µM in the experiment on U251 CNS; 3.61 µM in the experiment on A549 NSCLC; 17.5 µM in the experiment on 786-0 renal; 6.98 µM with HOP-62 NSCLC; greater than 100 µM in the experiment with NCI-H226 lung; 50.2 µM in the experiment on SF-539 CNS. Further, the GI50 is 90.8 µM in the experiment on OVCAR-4 ovarian, 4.63 µM in the experiment on HOP-92 NSCLC, 5.22 µM with MDA-MB-435 and 8.57 µM in the experiment on SF-268 CNS. Besides, the TGI was 42.8 µM with U251 CNS; 14.7 µM in the experiment with A549 NSCLC; greater than 100 µM in the experiment with 786-0 renal; 18.9 µM in the experiment on HOP-62 NSCLC; greater than 100 µM with NCI-H226 lung; greater than 100 µM with SF-539 CNS. The TGI was greater than 100 µM with OVCAR-4 ovarian, 32.7 µM in the experiment on HOP-92 NSCLC, greater than 100 µM with MDA-MB-435 and greater than 100 µM in the experiment with SF-268 CNS.
In the case of `Cc1cc(NCCCNc2ccnc3cc(Cl)ccc23)nc(N2CCN(C)CC2)n1`, the GI50 is 3.91 µM with U251 CNS; 3.66 µM in the experiment on A549 NSCLC; 14.7 µM in the experiment on 786-0 renal; 4.79 µM in the experiment on HOP-62 NSCLC; 3.39 µM with NCI-H226 lung; 1.84 µM in the experiment with SF-539 CNS. The GI50 with OVCAR-4 ovarian was 4.03 µM; with HOP-92 NSCLC, 15.2 µM; in the experiment on MDA-MB-435, 2.57 µM; in the experiment on SF-268 CNS, 6.74 µM. The TGI in the experiment on U251 CNS stood at 17.2 µM; in the experiment on A549 NSCLC, 16.5 µM; with 786-0 renal, 38.3 µM; with HOP-62 NSCLC it was 21 µM; with NCI-H226 lung it was 22 µM; in the experiment with SF-539 CNS, 3.6 µM. The TGI in the experiment with OVCAR-4 ovarian is 44.5 µM; with HOP-92 NSCLC it was 37.4 µM; in the experiment with MDA-MB-435, 7.07 µM; in the experiment on SF-268 CNS, 26.3 µM.
Regarding `CC/C(=C(/c1ccc(OCCN(C)C)cc1)c1ccc(OC(=O)CCC(=O)c2c(C)[nH]c(/C=C3\N=C(c4ccc[nH]4)C=C3OC)c2C)cc1)c1ccccc1`, the GI50 in the experiment with U251 CNS is 1.46 µM; in the experiment on A549 NSCLC, 2.63 µM; in the experiment with 786-0 renal, 2.19 µM; in the experiment with HOP-62 NSCLC, 1.49 µM; in the experiment with NCI-H226 lung, 3.54 µM; with SF-539 CNS it was 2.59 µM. The GI50 in the experiment on OVCAR-4 ovarian is 1.49 µM; in the experiment with HOP-92 NSCLC, 0.749 µM; in the experiment with MDA-MB-435, 2.56 µM; with SF-268 CNS, 2.62 µM. The TGI was determined as 6.23 µM in the experiment on U251 CNS; 10.6 µM with A549 NSCLC; 5.73 µM in the experiment on 786-0 renal; 4.94 µM in the experiment on HOP-62 NSCLC; 22.5 µM in the experiment with NCI-H226 lung; 9.26 µM with SF-539 CNS. Also, the TGI in the experiment with OVCAR-4 ovarian was determined as 14.8 µM; in the experiment on HOP-92 NSCLC, 4.13 µM; with MDA-MB-435, 10.2 µM; with SF-268 CNS, 17.8 µM.
For `O=C1CC(c2cccc(O)c2)C2(C(=O)NC(=S)NC2=O)C(c2cccc(O)c2)C1` (stereo not given), the GI50 in the experiment with U251 CNS, with A549 NSCLC, in the experiment with 786-0 renal, in the experiment with HOP-62 NSCLC, in the experiment with NCI-H226 lung and in the experiment with SF-539 CNS was greater than 100 µM throughout. For the same compound, the GI50 in the experiment with OVCAR-4 ovarian, in the experiment with HOP-92 NSCLC, in the experiment with MDA-MB-435 and in the experiment with SF-268 CNS was greater than 100 µM each time. In addition, the TGI in the experiment on U251 CNS, with A549 NSCLC, in the experiment on 786-0 renal, with HOP-62 NSCLC, in the experiment on NCI-H226 lung and with SF-539 CNS was greater than 100 µM throughout. Further, the TGI in the experiment with OVCAR-4 ovarian, in the experiment on HOP-92 NSCLC, with MDA-MB-435 and with SF-268 CNS was greater than 100 µM throughout.
